# Measurements published in patent US5942532A, “2-substituted phenyl-benzimidazole antibacterial agents” (Ortho Pharmaceutical Corporation, priority 1997, dated 1999).
# Molecular target: T1, Kinase A and Spo0F (Bacillus subtilis, UniProt P16497)
# T1 construct: made in house; host or cells: recombinant E. coli
# T1 sequence (P16497 1-606): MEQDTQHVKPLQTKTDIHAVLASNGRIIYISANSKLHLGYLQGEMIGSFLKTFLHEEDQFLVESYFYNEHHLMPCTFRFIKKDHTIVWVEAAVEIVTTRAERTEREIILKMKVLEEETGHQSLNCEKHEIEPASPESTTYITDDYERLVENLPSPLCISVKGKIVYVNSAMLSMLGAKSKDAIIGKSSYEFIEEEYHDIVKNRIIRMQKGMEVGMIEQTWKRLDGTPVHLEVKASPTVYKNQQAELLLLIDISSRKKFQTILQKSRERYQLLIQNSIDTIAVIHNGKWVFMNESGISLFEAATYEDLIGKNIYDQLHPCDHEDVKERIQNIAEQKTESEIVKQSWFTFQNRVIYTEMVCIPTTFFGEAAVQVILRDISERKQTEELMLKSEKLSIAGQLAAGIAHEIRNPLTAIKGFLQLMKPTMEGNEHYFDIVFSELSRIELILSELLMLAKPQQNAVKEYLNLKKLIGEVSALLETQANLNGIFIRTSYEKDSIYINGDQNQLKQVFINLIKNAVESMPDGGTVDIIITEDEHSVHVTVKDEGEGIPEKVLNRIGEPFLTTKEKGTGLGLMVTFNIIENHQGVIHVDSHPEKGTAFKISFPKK
# Assay: Autophosphorylation of Kinase A and Transphosphorylation of Spo0F Assay (HPK in vitro assay)
# Assay type: biochemical
# Conditions: Table 1, KinA/Spo0F phosphorylation, in µM
# Protocol: Autophosphorylation of Kinase A and Transphosphorylation of Spo0F Assay
# To study the effect of the compounds of the present invention on the signal transduction process in bacteria, the inhibiting effect of the compounds on the sporulation operon proteins Kinase A and Spo0F was examined. Specifically, the inhibition of autophosphorylation of Kinase A and the transphosphorylation of Spo0F was determined in the following assays. The Spo0F response regulator is the primary substrate for phosphorylation by the protein kinase, Kin A, involved in the sporulation process in bacteria. See D. Burbulys, K. A. Trach, J. A. Hoch, Cell, 64, 545-552 (1991). Spo0F and KinA were prepared from recombinant E. coli overexpressing the proteins (J. Cavanagh et al, Amino Acids, 6, 131-140 (1994) and references therein).
# The following stock reagents were either prepared and used promptly or stored at the indicated temperature:
# 8×Salts: 2 M KCl (5 mL), 1 M MgCl2 (800 mL), 1 M CaCl2 (100 mL), 10 mg/mL phenylmethylsulfonyl fluoride (200 mL), 1 M dithioreitol (50 mL), 0.25 M Na2 EDTA (32 mL) and H2 O 3.82 mL (-20° C.)
# 5×Loading Dye: 0.5M TRIS-HCl, pH 6.8 (7.5 mL), 10% SDS (2 mL) 0.1% bromophenol blue (0.5 mL), 100% glycerol (3 mL) and 12.5 M 2-mercaptoethanol (0.3 mL)
# 1-1.3 mg/mL KinA: 15 mM TRIS-HCl, pH 8.0, 6 mM KCl; 4 mM 2-mercaptoethanol;40% glycerol (-20° C.)
# 1 mg/mL Spo0F: 17.5 mM TRIS-HCl, pH 8.0; 0.7 mM KCl; 0.7 mM MgCl2; 0.7 mM CaCl2; 5 mM 2-mercaptoethanol; 30% glycerol (-20° C.)
# 5% Stacking Gel: 40% 29:1 acrylamide:bis acrylamide (1.25 mL), 0.5 M TRIS-HCl, pH 6.8 (2.5 mL), 10% SDS (0.1 mL), D-H2 O (6.15 mL) 10% ammonium persulfate (100 mL) and TEMED (25 mL)
# SDS Running Buffer: TRIS-BASE (3.02 g), glycine (14.4 g), SDS (1 g), D-H2 O (to 1 L)
# The reaction mixture was prepared from 8×Salts (87 μL), 1M TRIS, pH 8 (118 μL), 50% glycerol (63 μL), Spo0F (14.1 μL) and KinA (7.0 μL). Microcentrifuge tubes were charged with the reaction mixture (18.5 μL) and a 1.0 mM solution of the test compound in 5% DMSO (18.5 μL), and incubated for 15 min on ice. 100 mM ATP solution (3.0 μl, containing 625 μCi [^32 P]ATP) was added, and the mixture left for 10 minutes at room temperature. The reaction was quenched with 5× loading dye (10 μL per tube) and the samples were loaded on a prepared 5% Stacking Gel, or stored on dry ice until ready for use. The prepared wells were filled with SDS Running Buffer, samples were loaded into the wells, and 80 volts were applied to the gel until the dye front reached the bottom of the stacking gel. The voltage was then increased to 250 volts until electrophoresis was complete. Radioactive bands in the gel corresponding to phosphorylated KinA and Spo0F were imaged and quantitated with a phosphoimager.
# If either enzyme was inhibited (as evidenced by the absence of labelled protein in the developed gel), an IC50 was calculated by running the assay with a range of inhibitor concentrations from 1 to 500 μM. After electrophoresis of the reaction mixtures, percent inhibition was determined by measuring the concentration of radioactive phosphorus with a phosphoimager and calculating the values using a software program (BioRad Molecular Analyst).
row,IC50,SMILES
1,23,N=C(N)c1ccc2nc(-c3cc(-c4ccccc4)cc(-c4ccccc4)c3O)[nH]c2c1 [Example 39]
2,199,N=C(N)c1ccc2nc(-c3cc([N+](=O)[O-])cc(Br)c3O)[nH]c2c1 [Example 40]
3,199,CC(C)(C)c1cc(-c2nc3ccc(C(=N)N)cc3[nH]2)c(OCC(=O)O)c(C(C)(C)C)c1 [Example 42]
4,40.2,CC(C)(C)c1csc(-c2ccc(-c3nc4ccc(C(=N)N)cc4[nH]3)cc2)n1 [Example 43]

row,SMILES,IC50
1,CCN(CC)c1ccc(-c2nc3ccc(C(=N)N)cc3[nH]2)c(O)c1 [Example 38],51
2,N=C(N)c1ccc2nc(-c3ccc(Oc4c([N+](=O)[O-])cc(C(F)(F)F)cc4[N+](=O)[O-])cc3)[nH]c2c1 [Example 45],28

# Same assay, conditions: Table 2, KinA/Spo0F phosphorylation, in µM
row,SMILES,IC50
1,Cn1c(-c2ccc(Oc3ccccc3)cc2)nc2ccc(C(=N)N)cc21 [Example 46],44
2,CCOC(=O)c1ccc(Oc2ccc(-c3nc4ccc(C(=N)N)cc4[nH]3)cc2)cc1 [Example 52],56
3,COc1cc(Oc2ccc(-c3nc4ccc(C(=N)N)cc4[nH]3)cc2)cc(OC)c1OC [Example 53],28.7
4,CC(C)(C)c1ccc(Oc2ccc(-c3nc4ccc(C(=N)N)cc4[nH]3)cc2)cc1 [Example 56],66.5
5,N=C(N)c1ccc2nc(-c3ccc(Oc4ccc([N+](=O)[O-])c([N+](=O)[O-])c4)cc3)[nH]c2c1 [Example 57],31.6
6,N=C(N)c1ccc2[nH]c(-c3ccc(Oc4ccc(N)c(N)c4)cc3)nc2c1 [Example 58],31.5
7,N=C(N)c1ccc2[nH]c(-c3ccc(Oc4ccc(Cl)cc4)cc3)nc2c1 [Example 59],13.9
8,N=C(N)c1ccc2[nH]c(-c3ccc(Oc4ccc(Cl)c(Cl)c4)cc3)nc2c1 [Example 60],11.4
9,N=C(N)c1cc([N+](=O)[O-])c2[nH]c(-c3ccc(Oc4ccccc4)cc3)nc2c1 [Example 61],58
10,N=C(N)c1cc(N)c2[nH]c(-c3ccc(Oc4ccccc4)cc3)nc2c1 [Example 62],19

# Further lines, results first:
row,IC50,SMILES
1,131,N=C(N)c1ccc(Oc2ccc(-c3nc4ccc(C(=N)N)cc4[nH]3)cc2)cc1 [Example 47]
2,29.2,N=C(N)c1ccc2nc(-c3ccc(Oc4ccc(Cl)cc4[N+](=O)[O-])cc3)[nH]c2c1 [Example 49]
3,31.7,N=C(N)c1ccc2nc(-c3ccc(Oc4ccc([N+](=O)[O-])cc4)cc3)[nH]c2c1 [Example 50]
4,140.6,N=C(N)c1ccc2nc(-c3ccc(Oc4ccc(N)cc4)cc3)[nH]c2c1 [Example 51]
5,17.7,COc1ccc(Oc2ccc(-c3nc4ccc(C(=N)N)cc4[nH]3)cc2)cc1 [Example 54]
6,59.2,COc1cc(OC)cc(Oc2ccc(-c3nc4ccc(C(=N)N)cc4[nH]3)cc2)c1 [Example 55]

# Same assay, conditions: Table 2, KinA/Spo0F phosphorylation, read-out: IC50
row,SMILES,IC50 [µM]
1,N=C(N)c1ccc2nc(-c3ccc(Oc4ccccc4)cc3)[nH]c2c1 [Example 48],42

# Same assay, conditions: Table 3, KinA/Spo0F phosphorylation, read-out: IC50
row,SMILES,IC50 [µM]
1,N=C(N)c1ccc2[nH]c(-c3cccc(Oc4cccc(C(F)(F)F)c4)c3)nc2c1 [Example 64],48
2,N=C(N)c1ccc2[nH]c(-c3cccc(Oc4cc(Cl)cc(Cl)c4)c3)nc2c1 [Example 66],32
3,CC(C)(C)c1ccc(Oc2cccc(-c3nc4cc(C(=N)N)ccc4[nH]3)c2)cc1 [Example 68],31.6
4,N=C(N)c1ccc2[nH]c(-c3cccc(Oc4ccc(Cl)cc4)c3)nc2c1 [Example 69],28
5,COc1ccc(Oc2cccc(-c3nc4cc(C(=N)N)ccc4[nH]3)c2)cc1 [Example 70],69.2

# Next, values leading:
row,IC50 [µM],SMILES
1,53,N=C(N)c1ccc2[nH]c(-c3cccc(Oc4ccccc4)c3)nc2c1 [Example 63]
2,33,Cc1ccc(Oc2cccc(-c3nc4cc(C(=N)N)ccc4[nH]3)c2)cc1 [Example 65]
3,32,N=C(N)c1ccc2[nH]c(-c3cccc(Oc4ccc(Cl)c(Cl)c4)c3)nc2c1 [Example 67]

# Same assay, conditions: Table 4, KinA/Spo0F phosphorylation, read-out: IC50
row,SMILES,IC50 [µM]
1,N=C(N)c1ccc2nc(-c3cc4c5c(c3)CCCN5CCC4)[nH]c2c1 [Example 76],85
2,N=C(N)c1ccc2nc(-c3cc4c5c(c3O)CCCN5CCC4)[nH]c2c1 [Example 77],18.5

# Further lines, results first:
row,IC50 [µM],SMILES
1,17.3,N=C(N)c1ccc2nc(-c3ccc4oc5ccccc5c4c3)[nH]c2c1 [Example 71]
2,64.3,N=C(N)c1ccc2nc(-c3ccc4c(c3)Cc3ccccc3-4)[nH]c2c1 [Example 72]
3,22.0,CCn1c2ccccc2c2ccc(-c3nc4ccc(C(=N)N)cc4[nH]3)cc21 [Example 73]
4,120,N=C(N)c1ccc2nc(-c3ccc4ccccc4c3)[nH]c2c1 [Example 74]
5,127,N=C(N)c1ccc2nc(-c3ccc4ccccc4c3O)[nH]c2c1 [Example 75]
6,114,CN1c2ccccc2C(C)(C)C12C=Cc1cc(-c3nc4ccc(C(=N)N)cc4[nH]3)ccc1O2 (stereo not drawn) [Example 78]

# Same assay, conditions: Table 5, KinA/Spo0F phosphorylation, in µM
row,IC50,SMILES
1,241,N=C(N)c1ccc(Oc2ccc(-c3nc4ccccc4[nH]3)cc2)cc1 [Example 79]
2,94,N=C(N)c1ccc2nc(-c3ccc(Oc4ccc5[nH]cnc5c4)cc3)[nH]c2c1 [Example 80]
3,26,N=C(N)c1ccc2nc(-c3ccc(N4CCN(c5ccccc5)CC4)cc3)[nH]c2c1 [Example 81]
4,22,N=C(N)Cn1c(-c2ccc(N(c3ccccc3)c3ccccc3)cc2)nc2ccc(C(=N)N)cc21 [Example 82]

# Same assay, conditions: Table 6, KinA/Spo0F phosphorylation, in µM
row,IC50,SMILES
1,112.4,c1ccc(Oc2ccc(-c3nc4ccc(C5=NCCN5)cc4[nH]3)cc2)cc1 [Example 83]
2,32.3,c1ccc(Oc2ccc(-c3nc4ccc(-c5nc6ccccc6[nH]5)cc4[nH]3)cc2)cc1 [Example 84]
3,4,CC(C)(C)c1cc(-c2nc3ccc(C4=NCCN4)cc3[nH]2)c(O)c(C(C)(C)C)c1 [Example 85]
4,32,CC(C)(C)c1cc(-c2nc3ccc(C4=NCCCN4)cc3[nH]2)c(O)c(C(C)(C)C)c1 [Example 86]
5,29,CC(C)(C)c1cc(-c2nc3ccc(C4=NCCCCN4)cc3[nH]2)c(O)c(C(C)(C)C)c1 [Example 87]
6,12,CC1(C)CN=C(c2ccc3nc(-c4cc(C(C)(C)C)cc(C(C)(C)C)c4O)[nH]c3c2)N1 [Example 88]
7,152,CC(C)(C)c1cc(-c2nc3ccc(N)cc3[nH]2)c(O)c(C(C)(C)C)c1 [Example 90]

# Same assay, conditions: Table 6, KinA/Spo0F phosphorylation, read-out: IC50
row,SMILES,IC50 [µM]
1,CC(C)(C)c1cc(-c2nc3ccc(C(=O)O)cc3[nH]2)c(O)c(C(C)(C)C)c1 [Example 89],86
